Results from patent US11548889B2, “Emetine auristatin compounds” (Arizona Board of Regents on behalf of Arizona State …, priority 2019, dated 2023).
Structures can show the parent of a compound that is named as a salt. Where two headings read alike, the source gives them in different places.

What was measured:
BXPC-3 (pancreas) = assay: Human cancer cell growth inhibition, sulforhodamine B assay (NCI); type: cell-based
Procedure: (§1) Cancer Cell Line Procedures. Human cancer cell growth inhibition was measured using the standard sulforhodamine B assay of the U.S. National Cancer Institute, as previously described.^12 Briefly, cells in a 5% fetal bovine serum/RPMI1640 medium were inoculated in 96-well plates and incubated for 24 h. That was followed by serial dilutions of the compounds added. Forty-eight hours later the plates were fixed with trichloroacetic acid, stained with sulforhodamine B, and read with an automated microplate reader.
(§2) Next, growth inhibition of 50% (GI50 or the drug concentration causing a 50% reduction in the net protein increase) was calculated from optical density data with Immunosoft® software.

DU-145 (prostate) = assay: as above; type: cell-based
Procedure: as §1, §2

KM20L2 (colon) = assay: as above; type: cell-based
Procedure: as §1, §2

MCF-7 (breast) = assay: as above; type: cell-based
Procedure: as §1, §2

NCI-H460 (lung) = assay: as above; type: cell-based
Procedure: as §1, §2

SF-268 (CNS) = assay: as above; type: cell-based
Procedure: as §1

Human Cancer Cell Lines = assay: Human cancer cell growth inhibition, summary over the six cell line panel; type: cell-based; conditions: for biological activity (cancer cell growth inhibition): six cell line panel; for decrease in biological activity compared to both emetine and Compound 5: in four cell lines
Procedure: as §1, §2

[1] = tested on: NCI 60 Cancer cell screen; conditions: cited from earlier work
[2] = NCI-H460, 48 h, sulforhodamine B

| Structure (SMILES) | GI50 (BXPC-3 (pancreas); Homo sapiens, BXPC-3) [nM] | GI50 (BXPC-3 (pancreas); Homo sapiens, BXPC-3, 48 h) [µg/mL] | GI50 (DU-145 (prostate); Homo sapiens, DU-145) [nM] | GI50 (DU-145 (prostate); Homo sapiens, DU-145, 48 h) [µg/mL] | GI50 (KM20L2 (colon); Homo sapiens, KM-20L2) [nM] | GI50 (KM20L2 (colon); Homo sapiens, KM-20L2, 48 h) [µg/mL] | GI50 (MCF-7 (breast); Homo sapiens, MCF7) [nM] | GI50 (MCF-7 (breast); Homo sapiens, MCF7, 48 h) [µg/mL] | GI50 (NCI-H460 (lung); Homo sapiens, NCI-H460) [nM] | GI50 (NCI-H460 (lung); Homo sapiens, NCI-H460, 48 h) [µg/mL] | GI50 (SF-268 (CNS); Homo sapiens, SF-268) [nM] | GI50 (SF-268 (CNS); Homo sapiens, SF-268, 48 h) [µg/mL] | GI50 (BXPC-3 (pancreas); BXPC-3, 48 h, sulforhodamine B) [µg/mL] | GI50 (DU-145 (prostate); DU-145, 48 h, sulforhodamine B) [µg/mL] | GI50 (KM20L2 (colon); KM20L2, 48 h, sulforhodamine B) [µg/mL] | GI50 (MCF-7 (breast); MCF-7, 48 h, sulforhodamine B) [µg/mL] | GI50 (NCI-H460 (lung); [2]) [µg/mL] | GI50 (SF-268 (CNS); SF-268, 48 h, sulforhodamine B) [µg/mL] | biological activity (cancer cell growth inhibition) (Human Cancer Cell Lines) | also measured |
| --- | --- | --- | --- | --- | --- | --- | --- | --- | --- | --- | --- | --- | --- | --- | --- | --- | --- | --- | --- | --- |
| CC[C@H]1CN2CCc3cc(OC)c(OC)cc3C2C[C@@H]1C[C@@H]1c2cc(OC)c(OC)cc2CCN1C(=O)[C@H](C)[C@@H](OC)C1CCCN1C(=O)C[C@@H](OC)[C@H]([C@@H](C)CC)N(C)C(=O)[C@@H](NC(=O)[C@H](C(C)C)N(C)C)C(C)C (stereo in doubt) [Compound 5, 2N′-(Dov-Val-Dil-Dap)-Emetine] | 386 | 0.41 | 12.3 | 0.013 | 35.8 | 0.038 | 35.8 | 0.038 | 198 | 0.21 | 30.2 | 0.032 |  |  |  |  |  |  |  | decrease in activity compared to emetine (BXPC-3 (pancreas); BXPC-3 cell line): 10 fold; cytotoxicity relative to emetine (Human Cancer Cell Lines; in four of the six cell lines): comparable to that of emetine |
| CC[C@H]1CN2CCc3cc(OC)c(OC)cc3[C@@H]2C[C@@H]1C[C@H]1NCCc2cc(OC)c(OC)cc21 [Compound 1, emetine dihydrochloride, reference compound] |  |  |  |  |  |  |  |  |  |  |  |  |  |  |  |  |  |  |  | GI50 (BXPC-3 (pancreas); Homo sapiens, BXPC-3, 48 h, sulforhodamine B, read-out: GI50): 0.031 µg/mL; GI50 (BXPC-3 (pancreas); Homo sapiens, BXPC-3, value in brackets, read-out: GI50): 56 nM; GI50 (DU-145 (prostate); Homo sapiens, DU-145, 48 h, sulforhodamine B, read-out: GI50): 0.02 µg/mL; GI50 (DU-145 (prostate); Homo sapiens, DU-145, value in brackets, read-out: GI50): 36.1 nM; GI50 (KM20L2 (colon); Homo sapiens, KM-20L2, KM20L2, 48 h, sulforhodamine B, read-out: GI50): 0.026 µg/mL; GI50 (KM20L2 (colon); Homo sapiens, KM-20L2, KM20L2, value in brackets, read-out: GI50): 47 nM; GI50 (MCF-7 (breast); Homo sapiens, MCF7, MCF-7, 48 h, sulforhodamine B, read-out: GI50): 0.03 µg/mL; GI50 (MCF-7 (breast); Homo sapiens, MCF7, MCF-7, value in brackets, read-out: GI50): 54.2 nM; GI50 (NCI-H460 (lung); Homo sapiens, NCI-H460, 48 h, sulforhodamine B, read-out: GI50): 0.022 µg/mL; GI50 (NCI-H460 (lung); Homo sapiens, NCI-H460, value in brackets, read-out: GI50): 39.7 nM |
| CCC1CN2CCc3cc(OC)c(OC)cc3C2CC1CC1c2cc(OC)c(OC)cc2CCN1C(=O)CCNC(=O)C(C)C(OC)C1CCCN1C(=O)OC(C)(C)C (stereo not shown) [Compound 8, 2′-N-(boc-dap-[…]-ala)-emetine] |  |  |  |  |  |  |  |  |  |  |  |  | >10 | 10.0 | >10 | >10 | >10 | >10 | inactive |  |
| CC[C@H]1CN2CCc3cc(OC)c(OC)cc3[C@@H]2C[C@@H]1C[C@H]1NCCc2cc(OC)c(OC)cc21 [Emetine] |  |  |  |  |  |  |  |  |  |  |  |  |  |  |  |  |  |  |  | G150 [1]: 27 nM |
| CC[C@H]1CN2CCc3cc(OC)c(OC)cc3C2C[C@@H]1C[C@@H]1c2cc(OC)c(OC)cc2CCN1CCNC(=O)[C@H](C)[C@@H](OC)C1CCCN1C(=O)C[C@@H](OC)C([C@@H](C)CC)N(C)C(=O)[C@@H](NC(=O)[C@H](C(C)C)N(C)C)C(C)C (stereo partly drawn) [Compound 10, 2′-N-(ethylamine-N-Dap-Dil-Val-Dov)-Emetine] | 1900 | 2.1 | 181 | 0.2 | 362 | 0.4 | 118 | 0.13 | 4530 | 5 | 272 | 0.3 |  |  |  |  |  |  |  | decrease in biological activity compared to both emetine and Compound 5 (Human Cancer Cell Lines): 10 fold |
| CCC1CN2CCc3cc(OC)c(OC)cc3C2CC1CC1c2cc(OC)c(OC)cc2CCN1C(=O)CCNC(=O)OC(C)(C)C (stereo not drawn) [Compound 6, 2′-(N-carboxy-β-alanyl)-tert-butyl emetine ester] |  |  |  |  |  |  |  |  |  |  |  |  | >10 | >10 | >10 | 10 | >10 | >10 | inactive |  |
| CC[C@H]1CN2CCc3cc(OC)c(OC)cc3C2C[C@@H]1C[C@@H]1c2cc(OC)c(OC)cc2CCN1C(=O)CCN (stereo partly drawn) [Compound 7, 2′-N-(β-alanine)-emetine TFA salt] |  | 10.3 |  | 10.1 |  | > 10 |  | > 10 |  | > 10 |  | > 10 |  |  |  |  |  |  | inactive |  |
| CC[C@H]1CN2CCc3cc(OC)c(OC)cc3C2C[C@@H]1C[C@@H]1c2cc(OC)c(OC)cc2CCN1C(=O)CCNC(=O)[C@H](C)[C@@H](OC)C1CCCN1C(=O)C[C@@H](OC)C([C@@H](C)CC)N(C)C(=O)[C@@H](NC(=O)[C@H](C(C)C)N(C)C)C(C)C (stereo partly drawn) [Compound 9, Dov-Val-Dil-Dap-β-Ala-Emetine] | 3800 | 4.3 | 97.2 | 0.11 | 194 | 0.22 | 159 | 0.18 | 2830 | 3.2 | 186 | 0.21 |  |  |  |  |  |  |  | decrease in biological activity compared to both emetine and Compound 5 (Human Cancer Cell Lines): 10 fold |
| CCC1CN2CCc3cc(OC)c(OC)cc3C2CC1CC1c2cc(OC)c(OC)cc2CCN1C(=O)C(C)C(OC)C1CCCN1.O=C(O)C(F)(F)F (stereo not shown) [Compound 3, 2′-N-(Dap)-emetine TFA salt] |  |  |  |  |  |  |  |  |  |  |  |  | 2.1 | 3.0 | 3.0 | 1.4 | 5.0 | 3.2 |  | GI50 (BXPC-3 (pancreas); BXPC-3, value in brackets, read-out: GI50): 2390 nM; GI50 (DU-145 (prostate); DU-145, value in brackets, read-out: GI50): 3420 nM; GI50 (KM20L2 (colon); KM20L2, value in brackets, read-out: GI50): 3420 nM; GI50 (MCF-7 (breast); MCF-7, value in brackets, read-out: GI50): 1600 nM; GI50 (NCI-H460 (lung); NCI-H460, value in brackets, read-out: GI50): 5700 nM; GI50 (SF-268 (CNS); SF-268, value in brackets, read-out: GI50): 3650 nM; decrease in activity compared to emetine (Human Cancer Cell Lines; in all six cell lines): 100 fold |
